Laboratory results taken from patent US10829481B2, “Benzimidazole derivatives as modulators of ROR-gamma” (Vitae Pharmaceuticals, LLC, priority 2016, dated 2020).

Biological target: recombinant RORγ Ligand Binding Domain (LBD) protein (Homo sapiens (Human), UniProt P51449)
Assay: Radio-Ligand RORγ Binding Assay (Assay 1)
Settings: competition with 25-hydroxy [26,27-3H]-cholesterol, SPA
Procedure: Radio-Ligand RORγ Binding Assay (Assay 1)
Compounds described herein were tested for ability to bind to RORγ in a cell-free competition assay with commercially available radio-ligand (RL), 25-hydroxy [26,27-^3H]-cholesterol (PerkinElmer, Cat. #NET674250UC), for a ligand binding site on a recombinant RORγ Ligand Binding Domain (LBD) protein expressed as a 6×His-Glutathione-S-Transferase (GST) fusion. The assay was performed in 96-well SPA plates (PerkinElmer, Cat. #1450-401) in 50 mM HEPES buffer, pH 7.4, containing 150 mM NaCl, 5 mM MgCl2, 10% (v/v) glycerol, 2 mM CHAPS, 0.5 mM β-octylglucopyranoside and 5 mM DTT. Tested compounds were dissolved in DMSO, and semi-log (3.162×) serial dilutions of the compounds were prepared in the same solvent. Two μL of the DMSO solutions were mixed with 28 μL of 8.6 nM 25-hydroxy [26,27-^3H]-cholesterol and 50 μL of 24 nM RORγ LBD. The plate was shaken at 700 rpm for 20 min and incubated for 10 min at rt, after which 40 μL of poly-Lys YSi SPA beads (PerkinElmer, Cat. #RPNQ0010) were added to achieve […] of the beads per well. The plate was incubated on an orbital shaker for 20 min and then for 10 min without agitation at rt. SPA signal for tritium beta radiation was registered on PerkinElmer Microbeta plate reader. […] The percent inhibition vs. concentration data were fit into a four-parameter model, and IC50 values were calculated from the fit as the concentrations corresponding to the inflection points on the dose-response curves. Inhibitory constants (Ki) were calculated using the following equation, where [RL] is the concentration in the assay and KD is a dissociation constant of 25-hydroxy [26,27-^3H]-cholesterol: […]

Sequence of recombinant RORγ Ligand Binding Domain (LBD) protein (P51449 269-508): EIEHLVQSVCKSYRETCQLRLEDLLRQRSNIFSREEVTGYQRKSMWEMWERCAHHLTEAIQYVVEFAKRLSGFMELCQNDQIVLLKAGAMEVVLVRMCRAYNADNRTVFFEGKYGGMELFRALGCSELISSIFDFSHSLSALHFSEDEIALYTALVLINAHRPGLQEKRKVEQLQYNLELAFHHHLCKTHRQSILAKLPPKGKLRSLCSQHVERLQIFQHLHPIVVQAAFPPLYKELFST

Row | Ki [nM] | Molecule
1 | < 100 | CCS(=O)(=O)c1ccc([C@@H](CO)NC(=O)c2ccc3c(c2)nc(C2(F)CC2)n3Cc2cccc3c2OC(F)(F)O3)nc1 [I-134.2, (S)-1-((2,2-difluorobenzo[d][1,3]dioxol-4-yl)methyl)-N-(1-(5-(ethylsulfonyl)pyridin-2-yl)-2-hydroxyethyl)-2-(1-fluorocyclopropyl)-1H-benzo[d]imidazole-5-carboxamide]
2 | 100 to 1000 | CCS(=O)(=O)c1ccc(CNC(=O)c2ccc3c(c2)nc([C@H]2C[C@H]2C#N)n3Cc2cccc3c2OC(F)(F)O3)cc1 [I-56, 2-((1S,2R)-2-cyanocyclopropyl)-1-((2,2-difluorobenzo[d][1,3]dioxol-4-yl)methyl)-N-(4-(ethylsulfonyl)benzyl)-1H-benzo[d]imidazole-5-carboxamide]
3 | 100 to 1000 | CCOC(=O)Cc1ccc(CC(=O)Nc2ccc3c(c2)nc(C(F)(F)F)n3Cc2cccc3c2OC(F)(F)O3)cc1 [I-7, ethyl 2-(4-(2-((1-((2,2-difluorobenzo[d][1,3]dioxol-4-yl)methyl)-2-(trifluoromethyl)-1H-benzo[d]imidazol-5-yl)amino)-2-oxoethyl)phenyl)acetate]
4 | > 1000 | CCS(=O)(=O)c1ccc(CNC(=O)c2ccc3c(c2)nc(C2CC2)n3C[C@H]2CCCN2C(=O)OC(C)(C)C)cc1 [I-108, tert-butyl (R)-2-((2-cyclopropyl-5-((4-(ethylsulfonyl)benzyl)carbamoyl)-1H-benzo[d]imidazol-1-yl)methyl)pyrrolidine-1-carboxylate]
5 | > 1000 | CCS(=O)(=O)c1ccc(CNC(=O)c2ccc3c(c2)nc(C2CC2)n3Cc2cnn(CC(F)(F)F)c2)cc1 [I-111, 2-cyclopropyl-N-(4-(ethylsulfonyl)benzyl)-1-((1-(2,2,2-trifluoroethyl)-1H-pyrazol-4-yl)methyl)-1H-benzo[d]imidazole-5-carboxamide]
6 | > 1000 | CCS(=O)(=O)c1ccc(CNC(=O)c2ccc3c(c2)nc(C(F)(F)F)n3Cc2nnc3n2CCC3)cc1 [I-86, 1-((6,7-dihydro-5H-pyrrolo[2,1-c][1,2,4]triazol-3-yl)methyl)-N-(4-(ethylsulfonyl)benzyl)-2-(trifluoromethyl)-1H-benzo[d]imidazole-5-carboxamide]
7 | 100 to 1000 | CS(=O)(=O)c1ccc([C@H](CO)NC(=O)c2ccc3c(c2)nc(C(F)(F)F)n3Cc2cccc3c2OC(F)(F)O3)nc1 [I-135, (R)-1-((2,2-difluorobenzo[d][1,3]dioxol-4-yl)methyl)-N-(2-hydroxy-1-(5-(methylsulfonyl)pyridin-2-yl)ethyl)-2-(trifluoromethyl)-1H-benzo[d]imidazole-5-carboxamide]
8 | > 1000 | CCS(=O)(=O)c1ccc(CNC(=O)c2ccc3c(c2)nc(C2CC2)n3C[C@H]2CCN(CC(F)(F)F)C2)cc1 [I-156, (S)-2-cyclopropyl-N-(4-(ethylsulfonyl)benzyl)-1-((1-(2,2,2-trifluoroethyl)pyrrolidin-3-yl)methyl)-1H-benzo[d]imidazole-5-carboxamide]
9 | > 1000 | CCS(=O)(=O)c1ccc(CNC(=O)c2ccc3c(c2)nc(C2CC2)n3C[C@H]2CCN(c3ncc(F)cn3)C2)cc1 [I-159, (R)-2-cyclopropyl-N-(4-(ethylsulfonyl)benzyl)-1-((1-(5-fluoropyrimidin-2-yl)pyrrolidin-3-yl)methyl)-1H-benzo[d]imidazole-5-carboxamide]
10 | > 1000 | CCS(=O)(=O)c1ccc(CNC(=O)c2ccc3c(c2)nc(C2CC2)n3Cc2ccn(CC(F)(F)F)n2)cc1 [I-114, 2-cyclopropyl-N-(4-(ethylsulfonyl)benzyl)-1-((1-(2,2,2-trifluoroethyl)-1H-pyrazol-3-yl)methyl)-1H-benzo[d]imidazole-5-carboxamide]
11 | 100 to 1000 | CCS(=O)(=O)c1ccc(CNC(=O)c2ccc3c(c2)nc(C(F)(F)F)n3CC2CCN(C(=O)OC(C)(C)C)CC2)cc1 [I-145, tert-butyl 4-((5-((4-(ethylsulfonyl)benzyl)carbamoyl)-2-(trifluoromethyl)-1H-benzo[d]imidazol-1-yl)methyl)piperidine-1-carboxylate]
12 | 100 to 1000 | CCS(=O)(=O)c1ccc(CNC(=O)c2ccc3c(c2)nc(C2CC2)n3Cc2cccc(C#N)c2)cc1 [I-112, 1-(3-cyanobenzyl)-2-cyclopropyl-N-(4-(ethylsulfonyl)benzyl)-1H-benzo[d]imidazole-5-carboxamide]
13 | > 1000 | CCS(=O)(=O)c1ccc(CNC(=O)c2ccc3c(c2)nc(C2CC2)n3C[C@H]2CCN(C(=O)OC(C)(C)C)C2)cc1 [I-107, tert-butyl (R)-3-((2-cyclopropyl-5-((4-(ethylsulfonyl)benzyl)carbamoyl)-1H-benzo[d]imidazol-1-yl)methyl)pyrrolidine-1-carboxylate]
14 | < 100 | CCS(=O)(=O)c1ccc(C(CO)(CO)NC(=O)c2ccc3c(c2)nc(C(F)(F)F)n3Cc2cccc3c2OC(F)(F)O3)cc1 [I-174, 1-((2,2-difluorobenzo[d][1,3]dioxol-4-yl)methyl)-N-(2-(4-(ethylsulfonyl)phenyl)-1,3-dihydroxypropan-2-yl)-2-(trifluoromethyl)-1H-benzo[d]imidazole-5-carboxamide]
15 | 100 to 1000 | CN1CCN(S(C)(=O)=O)CCC1CNC(=O)c1ccc2c(c1)nc(C(F)(F)F)n2Cc1cccc2c1OC(F)(F)O2 (centres unmarked) [I-171, 1-((2,2-difluorobenzo[d][1,3]dioxol-4-yl)methyl)-N-((4-methyl-1-(methylsulfonyl)-1,4-diazepan-5-yl)methyl)-2-(trifluoromethyl)-1H-benzo[d]imidazole-5-carboxamide]
16 | 100 to 1000 | CCS(=O)(=O)c1ccc(CNC(=O)c2ccc3c(c2)nc(C(F)(F)F)n3Cc2cccn(C)c2=O)cc1 [I-146, N-(4-(ethylsulfonyl)benzyl)-1-((1-methyl-2-oxo-1,2-dihydropyridin-3-yl)methyl)-2-(trifluoromethyl)-1H-benzo[d]imidazole-5-carboxamide]
17 | > 1000 | CCS(=O)(=O)c1ccc(CNC(=O)c2ccc3c(c2)nc(C2CC2)n3C[C@H]2CCCN2CC(F)(F)F)cc1 [I-157, (R)-2-cyclopropyl-N-(4-(ethylsulfonyl)benzyl)-1-((1-(2,2,2-trifluoroethyl)pyrrolidin-2-yl)methyl)-1H-benzo[d]imidazole-5-carboxamide]
18 | 100 to 1000 | CCS(=O)(=O)c1ccc([C@@H](CO)NC(=O)c2ccc3c(c2)nc(C2CC2)n3Cc2cccc3c2OC(F)(F)O3)nc1 [I-133.2, (S)-2-cyclopropyl-1-((2,2-difluorobenzo[d][1,3]dioxol-4-yl)methyl)-N-(1-(5-(ethylsulfonyl)pyridin-2-yl)-2-hydroxyethyl)-1H-benzo[d]imidazole-5-carboxamide]

Row | Molecule | Ki [nM]
19 | 2-cyclopropyl-N-(4-(ethylsulfonyl)benzyl)-1-((6-oxo-1-(2,2,2-trifluoroethyl)-1,6-dihydropyridin-3-yl)methyl)-1H-benzo[d]imidazole-5-carboxamide [I-117] | > 1000

Biological target: full-length RORγt in Jurkat cells (Homo sapiens (Human), UniProt P51449)
Sequence (P51449 other isoform, or with tags, fused parts or gaps): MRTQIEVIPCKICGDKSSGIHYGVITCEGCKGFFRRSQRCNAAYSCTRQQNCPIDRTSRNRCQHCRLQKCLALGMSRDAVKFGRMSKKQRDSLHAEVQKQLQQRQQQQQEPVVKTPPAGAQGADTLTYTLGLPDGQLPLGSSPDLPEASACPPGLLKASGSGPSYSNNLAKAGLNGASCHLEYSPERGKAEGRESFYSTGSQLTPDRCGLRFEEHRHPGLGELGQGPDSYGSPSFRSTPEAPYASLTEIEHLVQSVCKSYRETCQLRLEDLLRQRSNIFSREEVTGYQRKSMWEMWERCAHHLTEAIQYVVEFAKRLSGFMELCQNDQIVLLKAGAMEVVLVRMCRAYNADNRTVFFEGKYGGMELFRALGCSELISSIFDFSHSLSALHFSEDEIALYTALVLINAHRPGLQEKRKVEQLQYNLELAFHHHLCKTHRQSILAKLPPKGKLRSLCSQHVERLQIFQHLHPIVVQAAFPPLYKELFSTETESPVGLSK
Assay: RORγt 5×RORE Assay in Jurkat Cells (Assay 2)
Format: cell-based
Settings: 5×RORE Nanoluc luciferase reporter
Procedure: RORγt 5×RORE Assay in Jurkat Cells (Assay 2)
Compounds described herein were tested for RORγ inverse agonist activity in a cell-based, transcriptional activity assay. Secreted Nanoluc® luciferase was used as a reporter for transcriptional activity of the full-length RORγt in Jurkat cells (ATCC, Cat. #TIB-152). […] (Promega, Cat. #N1021) using KpnI and HindIII restriction sites. […] After 5-6 hrs of incubation at 37° C./5% CO2, the cells were collected, resuspended in phenol-red free RPMI media containing 10% (v/v) delipidated FBS (Hyclone, Cat. #SH30855.03) and dispensed into 96-well clear bottom tissue culture plates (CoStar, Cat. #3603), at 80,000 cells per well. Tested compounds were added to the cells in the same media (final concentration of DMSO was 0.1% (v/v)), and the plates were incubated at 37° C./5% CO2 for 16-18 hrs. Luciferase activity in the conditioned supernatants was determined with NanoGlo® assay reagents (Promega, Cat. #N1130).

Row | IC50 [nM] | Molecule
20 | < 100 | CCS(=O)(=O)c1ccc([C@@H](CO)NC(=O)c2ccc3c(c2)nc(C2(F)CC2)n3Cc2cccc3c2OC(F)(F)O3)nc1 [I-134.2, (S)-1-((2,2-difluorobenzo[d][1,3]dioxol-4-yl)methyl)-N-(1-(5-(ethylsulfonyl)pyridin-2-yl)-2-hydroxyethyl)-2-(1-fluorocyclopropyl)-1H-benzo[d]imidazole-5-carboxamide]
21 | < 100 | CCS(=O)(=O)c1ccc(CNC(=O)c2ccc3c(c2)nc(C(F)(F)F)n3Cc2cccc3c2OC(F)(F)O3)[n+]([O-])c1 [I-161, 2-((1-((2,2-difluorobenzo[d][1,3]dioxol-4-yl)methyl)-2-(trifluoromethyl)-1H-benzo[d]imidazole-5-carboxamido)methyl)-5-(ethylsulfonyl)pyridine 1-oxide]
22 | < 100 | CCS(=O)(=O)c1ccc([C@H](CO)NC(=O)c2ccc3c(c2)nc(C2(F)CCC2)n3Cc2cccc3c2OC(F)(F)O3)cc1 [I-19, (R)-1-((2,2-difluorobenzo[d][1,3]dioxol-4-yl)methyl)-N-(1-(4-(ethylsulfonyl)phenyl)-2-hydroxyethyl)-2-(1-fluorocyclobutyl)-1H-benzo[d]imidazole-5-carboxamide]
23 | < 100 | CCS(=O)(=O)c1ccc([C@H](CO)NC(=O)c2ccc3c(c2)nc(C2CC2)n3Cc2cccc3c2OC(F)(F)O3)cc1 [I-12, (R)-2-cyclopropyl-1-((2,2-difluorobenzo[d][1,3]dioxol-4-yl)methyl)-N-(1-(4-(ethylsulfonyl)phenyl)-2-hydroxyethyl)-1H-benzo[d]imidazole-5-carboxamide]
